Experimental data from patent US20030145348A1, “Dehydroquinate dehydrase/shikimate dehydrogenase as a herbicide target” (priority 2000, published 2003).

Legend:
[1] = system: shikimate dehydrogenase; details: cited from earlier work
[2] = target: dehydroquinate dehydratase/shikimate dehydrogenase (Nicotiana tabacum, UniProt Q6PUF9); experiment: shikimate dehydrogenase activity assay of Example 5A (NADPH formation, OD 334 nm); type: biochemical; details: 0.1 mM shikimate, 0.1 mM NADP, pH 9.9
Protocol: A. The shikimate dehydrogenase of the bifunctional dehydroquinate dehydratase/shikimate dehydrogenase enzyme catalyzes the following reaction:
shikimate+NADP ? dehydroshikimate+NADPH
The formation of NADPH can be measured over 10 minutes at an OD of 334 nm. The reaction is started by adding 1 microliter of the extracted crude protein. The reaction buffer contains:
100 mM glycine-NaOH, pH: 9.9;
0.1 mM shikimate (Sigma);
The full-length dehydroquinate dehydratase/shikimate dehydrogenase gene was cloned into the pQE vector (FIG. 7) and transformed into E. coli. A single colony of this E. coli strain was incubated overnight at 37° C. in the growth medium “2xYT” (per liter: Bacto tryptone 16 g, yeast extract 10 g, NaCl 5 g, 50 mg/l ampicillin and 50 mg/l kanamycin). Next day, 50 ml of 2*YT were inoculated with 0.5 ml of the overnight culture and grown at 25° C. to an OD600 of 0.6. Gene expression was induced by addition of IPTG (final concentration: 0.05 mM) and incubation was continued for 3 hours at 25° C. The cells were harvested at 4° C. by centrifugation for 10 minutes at 8000 rpm. The pellet was taken up in 3 ml of extraction buffer (50 mM NaH2PO4, 300 mM NaCl, 10 mM imidazole, 15% glycerol, 5 mM mercaptoethanol). The pellet was frozen in liquid nitrogen and again defrosted on ice. The cells were disrupted by sonication (4×45 seconds, 1 minute on ice). The cells were spun down for 20 minutes at 4° C. and 1500 rpm, and the supernatent was used directly for the enzyme measurements.
Six substances whose IC50 value is in the μM range were identified in a comprehensive screening based on the activity assay described in Example 5A (see Table 1).

[3] = system: duckweed Lemna paucicostatag; experiment: Lemna test, chlorophyll fluorescence; type: in vivo, Lemna minor; set-up: key: A herbicidal effect can be detected by comparison with an untreated control; it is identified in Table 1 by the symbol H; details: chlorophyll fluorescence vs untreated control; 5 mmol/l in DMSO diluted 1:5 in water, 25 μl in 0.5 ml nutrient solution
Protocol: The effect of the herbicidal compounds according to the invention on the growth of the duckweed Lemna paucicostatag is evident from the following test results:
Lemna minor was grown under nonsterile conditions in Petri dishes in 17 mmol/l MES buffer pH 5.5+1.5 mmol/l CaCl—2+1 g/l “Hakaphos spezial”.
To carry out the test, the Lemna cultures are washed and singled out into 0.5 ml of fresh nutrient solution in 48-well microtiter plates. The active ingredients are dissolved in DMSO at a concentration of 5 mmol/l and diluted 1:5 in water. 25 μl of this solution are used in the test.
The parameter measured is the fluorescence of the chlorophyll during the treatment. A herbicidal effect can be detected by comparison with an untreated control; it is identified in Table 1 by the symbol H.

[4] = target: T1, dehydroquinate dehydratase (Escherichia coli, UniProt P05194); details: in Escherichia coli; cited from earlier work
T1 sequence (P05194 1-252): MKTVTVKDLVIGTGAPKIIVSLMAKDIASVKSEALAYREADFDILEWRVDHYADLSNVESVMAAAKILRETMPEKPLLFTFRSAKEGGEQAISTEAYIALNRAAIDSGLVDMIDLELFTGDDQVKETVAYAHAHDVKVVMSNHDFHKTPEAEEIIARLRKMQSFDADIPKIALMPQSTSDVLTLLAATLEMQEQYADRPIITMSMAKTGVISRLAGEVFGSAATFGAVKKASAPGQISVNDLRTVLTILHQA

Chain of dehydroquinate dehydratase/shikimate dehydrogenase (Q6PUF9 entry or part of it): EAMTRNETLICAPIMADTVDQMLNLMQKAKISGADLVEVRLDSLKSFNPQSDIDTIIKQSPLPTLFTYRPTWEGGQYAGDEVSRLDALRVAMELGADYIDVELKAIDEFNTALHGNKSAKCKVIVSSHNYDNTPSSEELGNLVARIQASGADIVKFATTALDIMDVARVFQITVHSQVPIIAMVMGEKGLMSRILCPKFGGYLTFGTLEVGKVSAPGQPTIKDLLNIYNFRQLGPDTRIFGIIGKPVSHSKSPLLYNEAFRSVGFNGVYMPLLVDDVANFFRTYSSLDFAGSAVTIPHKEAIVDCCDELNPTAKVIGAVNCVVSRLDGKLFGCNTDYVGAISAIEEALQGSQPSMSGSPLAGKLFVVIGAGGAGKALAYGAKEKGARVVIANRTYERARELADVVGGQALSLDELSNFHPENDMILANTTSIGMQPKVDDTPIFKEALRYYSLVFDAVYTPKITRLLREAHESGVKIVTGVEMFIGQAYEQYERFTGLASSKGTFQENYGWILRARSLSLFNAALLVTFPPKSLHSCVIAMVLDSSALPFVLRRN

## O=S(=O)([O-])[O-].[Cd+2] [CdSO4]
[1]
  inhibitory effect on shikimate dehydrogenase: inhibitory effect

## O=S(=O)([O-])[O-].[Cu+2] [CuSO4]
[1]
  inhibitory effect on shikimate dehydrogenase: inhibitory effect

## [Cu+2] [Cu^2+]
[1]
  inhibitory effect on shikimate dehydrogenase: inhibitory effect

## [Cl][Hg][Cl] [HgCl2]
[1]
  inhibitory effect on shikimate dehydrogenase: inhibitory effect

## [Hg+2] [Hg^2+]
[1]
  inhibitory effect on shikimate dehydrogenase: inhibitory effect

## CCN1C(=O)C=CC1=O [N-ethylmaleimides]
[1]
  inhibitory effect on shikimate dehydrogenase: inhibitory effect

## O=c1[nH]c2ccccc2c(=O)n1CCN1CC2C[C@@H](c3cccc(Cl)c3)C2C1 (stereo partly shown) [No. 1]
[2]
  IC50: 20 µM
[3]
  Effect (herbicidal effect on growth of Lemna): H

## O=C(NNC(=O)c1sc2ccccc2c1Cl)Nc1cccc(Cl)c1 [No. 2]
[2]
  IC50: 23 µM
[3]
  Effect (herbicidal effect on growth of Lemna): H

## CC(=N\O)/C(=N/Nc1ccc(S(C)(=O)=O)cc1)c1ccc(Cl)cc1 [No. 3]
[2]
  IC50: 7 µM
[3]
  Effect (herbicidal effect on growth of Lemna): H

## O=C(Nc1c(Cl)cc(Cl)cc1Cl)c1cccc(O)c1O [No. 5]
[2]
  IC50: 3 µM
[3]
  Effect (herbicidal effect on growth of Lemna): H

## COc1cc(C(=S)N[C@H]2CC[C@@H](C(C)(C)C)CC2)ccc1OC(C)=O [No. 6]
[2]
  IC50: 11 µM
[3]
  Effect (herbicidal effect on growth of Lemna): H

## [Cl-].[Cl-].[Zn+2] [ZnCl2]
[1]
  inhibitory effect on shikimate dehydrogenase: inhibitory effect

## [Zn+2] [Zn^2+]
[1]
  inhibitory effect on shikimate dehydrogenase: inhibitory effect

## D-(+)-tartrates
[4]
  inhibitory effect on dehydroquinate dehydratase: inhibitory effect

## acetates
[4]
  inhibitory effect on dehydroquinate dehydratase: inhibitory effect

## arsenites
[1]
  inhibitory effect on shikimate dehydrogenase: inhibitory effect

## berates
[1]
  inhibitory effect on shikimate dehydrogenase: inhibitory effect

## diethylcarbonates
[4]
  inhibitory effect on dehydroquinate dehydratase: inhibitory effect

## p-chloromercuribenzoates
[1]
  inhibitory effect on shikimate dehydrogenase: inhibitory effect

## succinates
[4]
  inhibitory effect on dehydroquinate dehydratase: inhibitory effect
